Assay results from US20140005163A1 (NOVARTIS AG, priority 2010, published 2014).

Tests used:
PI3K alpha = biological target: T1, PI3K alpha (Homo sapiens, UniProt P42336); test: PI3K alpha kinase assay (Kinase-Glo luminescence); assay type: biochemical
T1 construct: p85(iSH2) fusion partner (see partner chain) (N); His tag (C); made in house; host or cells: baculovirus; Tn5 (Trichoplusia ni) or TiniPro insect cells
Method in brief: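 Luminescent ATP-depletion assay (Kinase-Glo) with 10 nM PI3Kα and 10 μg/mL phosphatidylinositol as lipid substrate at 1 μM ATP. Incubation lasts 60 min at room temperature.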

[1] = system: PKB Ser473 phosphorylation in Rat1-myr-HA-p110 delta cells; test: Reverse protein array assay, PKB Ser473 phosphorylation in Rat1-myr-p110 delta cells; assay type: cell-based; conditions: read-out: p-PKB IC50
Method in brief: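 Measured: PKB Ser473 phosphorylation by reverse protein array in Rat1 cells expressing myr-HA-p110 alpha, beta or delta, after 30 min compound treatment at 37 °C with 0.2% DMSO vehicle.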

[2] = system: S6 Ribosomal Protein phosphorylation Ser235/236 in TSC1 null mouse embryo fibroblast (MEF) cells; test: Reverse protein array assay, S6 Ribosomal Protein phosphorylation Ser235/236 in TSC1 null MEF cells; assay type: cell-based; conditions: 1 h, pS6 ribosomal protein Ser235/236, 60 minutes incubation, read-out: p-S6 IC50
Method in brief: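 TSC1−/− MEFs, seeded and held ≥20 h at 37 °C/5% CO2, were exposed to 8-step serial compound dilutions (0.02% DMSO final; DMSO vehicle control) for 60 min at 37 °C. Cells were then lysed on ice for 10 min and lysates spotted onto reverse protein array chips.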

T1 sequence (P42336 with tags, fused parts or gaps limits assumed): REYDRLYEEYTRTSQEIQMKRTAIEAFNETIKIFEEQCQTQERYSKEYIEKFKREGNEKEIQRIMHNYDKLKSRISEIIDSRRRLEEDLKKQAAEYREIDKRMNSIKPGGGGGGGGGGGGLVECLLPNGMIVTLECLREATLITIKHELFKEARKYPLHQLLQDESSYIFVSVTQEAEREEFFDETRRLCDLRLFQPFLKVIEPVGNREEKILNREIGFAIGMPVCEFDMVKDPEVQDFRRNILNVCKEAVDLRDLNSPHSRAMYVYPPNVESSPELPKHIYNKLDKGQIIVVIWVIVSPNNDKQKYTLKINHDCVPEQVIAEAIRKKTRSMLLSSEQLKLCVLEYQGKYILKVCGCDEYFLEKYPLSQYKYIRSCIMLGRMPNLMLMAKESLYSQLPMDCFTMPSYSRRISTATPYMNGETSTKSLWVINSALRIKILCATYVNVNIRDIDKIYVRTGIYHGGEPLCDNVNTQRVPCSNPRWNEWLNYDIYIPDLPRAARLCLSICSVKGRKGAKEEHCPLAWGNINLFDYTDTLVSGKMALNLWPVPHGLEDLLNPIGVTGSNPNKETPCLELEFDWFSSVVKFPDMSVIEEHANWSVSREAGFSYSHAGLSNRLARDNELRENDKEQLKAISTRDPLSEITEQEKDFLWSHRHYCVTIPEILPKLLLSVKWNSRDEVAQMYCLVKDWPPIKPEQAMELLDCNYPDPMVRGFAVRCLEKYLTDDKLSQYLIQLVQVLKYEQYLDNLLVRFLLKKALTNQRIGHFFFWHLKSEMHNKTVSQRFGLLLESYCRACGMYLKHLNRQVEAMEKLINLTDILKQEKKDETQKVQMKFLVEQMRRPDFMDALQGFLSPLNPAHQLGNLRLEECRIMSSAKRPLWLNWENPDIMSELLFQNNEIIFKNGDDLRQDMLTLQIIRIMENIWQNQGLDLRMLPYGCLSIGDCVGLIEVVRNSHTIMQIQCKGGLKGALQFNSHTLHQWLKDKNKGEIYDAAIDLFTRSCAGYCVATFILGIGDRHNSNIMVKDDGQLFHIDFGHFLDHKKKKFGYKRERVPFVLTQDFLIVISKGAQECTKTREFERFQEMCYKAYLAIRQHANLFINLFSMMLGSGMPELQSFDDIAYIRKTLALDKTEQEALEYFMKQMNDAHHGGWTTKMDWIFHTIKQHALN

SMILES	IC50 (PI3K alpha) [nM]	IC50 [1] [nM]	IC50 [2] [nM]
CN(C)c1ccc(-c2ccc3ncc4c(c3c2)n(-c2cn(C)nc2Cl)c(=O)n4C)cn1 [Example 4.9, 1-(3-Chloro-1-methyl-1H-pyrazol-4-yl)-8-(6-dimethylamino-pyridin-3-yl)-3-methyl-1,3-dihydro-imidazo[4,5-c]quinolin-2-one]	9	8	2
CN(C)c1ncc(-c2ccc3ncc4c(c3c2)n(-c2cn(C)nc2Cl)c(=O)n4C)cn1 [Example 6.3, 1-(3-Chloro-1-methyl-1H-pyrazol-4-yl)-8-(2-dimethylamino-pyrimidin-5-yl)-3-methyl-1,3-dihydro-imidazo[4,5-c]quinolin-2-one]	8	24	8
Cc1nn(C)cc1-n1c(=O)n(C)c2cnc3ccc(-c4cnc(N)c(C(F)(F)F)c4)cc3c21 [Example 25.1, 8-(6-Amino-5-trifluoromethyl-pyridin-3-yl)-1-(1,3-dimethyl-1H-pyrazol-4-yl)-3-methyl-1,3-dihydro-imidazo[4,5-c]quinolin-2-one]	14	9	1
Cc1cc(-n2c(=O)n(C)c3cnc4ccc(-c5cnc(N)c(C(F)(F)F)c5)cc4c32)n(C)n1 [Example 25.6, 8-(6-Amino-5-trifluoromethyl-pyridin-3-yl)-1-(2,5-dimethyl-2H-pyrazol-3-yl)-3-methyl-1,3-dihydro-imidazo[4,5-c]quinolin-2-one]	41	32	1
CNS(=O)(=O)c1cccc(-c2ccc3ncc4c(c3c2)n(-c2cn(C)nc2C)c(=O)n4C)c1 [Example 39, 3-[1-(1,3-Dimethyl-1H-pyrazol-4-yl)-3-methyl-2-oxo-2,3-dihydro-1H-imidazo[4,5-c]quinolin-8-yl]-N-methyl-benzenesulfonamide]	< 3	84	37
Cc1nn(C)cc1-n1c(=O)n(C)c2cnc3ccc(-c4cccc(NS(C)(=O)=O)c4)cc3c21 [Example 47, N-{3-[1-(1,3-dimethyl-1H-pyrazol-4-yl)-3-methyl-2-oxo-2,3-dihydro-1H-imidazo[4,5-c]quinolin-8-yl]-phenyl}-methanesulfonamide]	73	839	127
CC(C)Oc1cncc(-c2ccc3ncc4c(c3c2)n(-c2cn(C)nc2Cl)c(=O)n4C)c1 [Example 58.2, 1-(3-Chloro-1-methyl-1H-pyrazol-4-yl)-8-(5-isopropoxy-pyridin-3-yl)-3-methyl-1,3-dihydro-imidazo[4,5-c]quinolin-2-one]	6	12	4
Cc1nn(C)cc1-n1c(=O)n(C)c2cnc3ccc(-c4cncc(OC5CCC5)c4)cc3c21 [Example 60.1, 8-(5-Cyclobutoxy-pyridin-3-yl)-1-(1,3-dimethyl-1H-pyrazol-4-yl)-3-methyl-1,3-dihydro-imidazo[4,5-c]quinolin-2-one]	< 3	33	1
Cc1nn(C)cc1-n1c(=O)n(C)c2cnc3ccc(-c4ccc(-c5ncc[nH]5)cc4)cc3c21 [Example 77, 1-(1,3-Dimethyl-1H-pyrazol-4-yl)-8-[4-(1H-imidazol-2-yl)-phenyl]-3-methyl-1,3-dihydro-imidazo[4,5-c]quinolin-2-one]	5	22	5
Cc1nn(C)cc1-n1c(=O)n(C)c2cnc3ccc(-c4cccc(OC(C)C)c4)cc3c21 [Example 82, 1-(1,3-Dimethyl-1H-pyrazol-4-yl)-8-(3-isopropoxy-phenyl)-3-methyl-1,3-dihydro-imidazo[4,5-c]quinolin-2-one]	39	314	17
CCN(CC)c1cncc(-c2ccc3ncc4c(c3c2)n(-c2cn(C)nc2C)c(=O)n4C)c1 [Example 95, 8-(5-Diethylamino-pyridin-3-yl)-1-(1,3-dimethyl-1H-pyrazol-4-yl)-3-methyl-1,3-dihydro-imidazo[4,5-c]quinolin-2-one]	36	25	1
Cc1nn(C)cc1-n1c(=O)n(C)c2cnc3ccc(-c4ccc(N5CCCC5)nc4)cc3c21 [Example 97, 1-(1,3-Dimethyl-1H-pyrazol-4-yl)-3-methyl-8-(6-pyrrolidin-1-yl-pyridin-3-yl)-1,3-dihydro-imidazo[4,5-c]quinolin-2-one]	85	30	3
CNc1ncc(-c2ccc3ncc4c(c3c2)n(-c2cn(C)nc2Cl)c(=O)n4C)cc1C [Example 119, 1-(3-Chloro-1-methyl-1H-pyrazol-4-yl)-3-methyl-8-(5-methyl-6-methylamino-pyridin-3-yl)-1,3-dihydro-imidazo[4,5-c]quinolin-2-one]	16	7	1
Cc1nn(C)cc1-n1c(=S)n(C)c2cnc3ccc(-c4cccnc4)cc3c21 [Example 128.1, 1-(1,3-Dimethyl-1H-pyrazol-4-yl)-3-methyl-8-pyridin-3-yl-1,3-dihydro-imidazo[4,5-c]quinoline-2-thione]	11	127	9
COc1ccc(-c2ccc3ncc4c(c3c2)n(-c2cn(C)nc2C)c(=S)n4C)cc1OC [Example 128.2, 8-(3,4-Dimethoxy-phenyl)-1-(1,3-dimethyl-1H-pyrazol-4-yl)-3-methyl-1,3-dihydro-imidazo[4,5-c]quinoline-2-thione]	11	10	1
CNc1ncc(-c2ccc3ncc4c(c3c2)n(-c2cn(C(C)C)nc2C)c(=O)n4C)cc1C(F)(F)F [Example 144.2, 1-(1-Isopropyl-3-methyl-1H-pyrazol-4-yl)-3-methyl-8-(6-methylamino-5-trifluoromethyl-pyridin-3-yl)-1,3-dihydro-imidazo[4,5-c]quinolin-2-one]	8	12	1
CCNc1ncc(-c2ccc3ncc4c(c3c2)n(-c2cn(C)nc2C)c(=O)n4C)cc1C(F)(F)F [Example 145.2, 1-(1,3-Dimethyl-1H-pyrazol-4-yl)-8-(6-ethylamino-5-trifluoromethyl-pyridin-3-yl)-3-methyl-1,3-dihydro-imidazo[4,5-c]quinolin-2-one]	27	42	0.94
CCn1cc(-n2c(=O)n(C)c3cnc4ccc(-c5cnc(N)c(Cl)c5)cc4c32)c(C)n1 [Example 148.3, 8-(6-Amino-5-chloro-pyridin-3-yl)-1-(1-ethyl-3-methyl-1H-pyrazol-4-yl)-3-methyl-1,3-dihydro-imidazo[4,5-c]quinolin-2-one]	7	14	1
Cc1cc(-n2c(=O)n(C)c3cnc4ccc(-c5cnc(F)c(N)c5)cc4c32)n(C)n1 [Example 149.3, 8-(5-Amino-6-fluoro-pyridin-3-yl)-1-(2,5-dimethyl-2H-pyrazol-3-yl)-3-methyl-1,3-dihydro-imidazo[4,5-c]quinolin-2-one]	63	168	6.94
Cc1nn(C(C)C)cc1-n1c(=O)n(C)c2cnc3ccc(-c4cnc(Cl)c(N)c4)cc3c21 [Example 152.1, 8-(5-Amino-6-chloro-pyridin-3-yl)-1-(1-isopropyl-3-methyl-1H-pyrazol-4-yl)-3-methyl-1,3-dihydro-imidazo[4,5-c]quinolin-2-one]	27	16	2
